Assay results taken from EP0320630A1, “Enantiometric iodobenzamides” (THE VANDERBILT UNIVERSITY, priority 1987, dated 1989).

Assays:
dopamine D-2 receptor [1] = target: T1, dopamine D-2 receptor (Rattus norvegicus, UniProt P61169); test: Blocking of [3H](S)-sulpiride binding to rat striatal membranes; details: radioligand [3H](S)-sulpiride at 5.0 nM; rat striatal membrane preparation; 30 min at 37 °C
T1 construct: 90 µL of the striatal membrane preparation; from tissue; host or cells: rat striatum (membrane homogenate)
Description: (§1) The procedure, described by de […]., and Beart P.M., Eur. J. Pharmacol. 106 133-139 (1984), is as follows: Male Sprague-Dawley rats (150-200 g) were killed by decapitation and their brains quickly removed and dissected on ice. Striata were dissected and homogenized in 40 vol of ice-cold 50 mM Tris-HCl buffer (pH 7.4) containing 120 mM sodium chloride, 5 mM potassium chloride, 2 mM calcium chloride, and 1 mM magnesium chloride using a Brinkman Polytron. The suspension was centrifuged at 30,000 x g for 10 min at 4 °C, and the pellet was resuspended in 40 vol of fresh buffer. The suspension was incubated at 37 °C for 10 min, centrifuged again at 30,000 x g for 10 min at 4 °C, and the final pellet was resuspended with the polytron in 200 vol of ice cold buffer. […] Tubes were incubated for 30 min at 37 °C, poured over Whatman GF/B filters under vacuum, and the filters were rinsed three times with 4 mL of ice cold buffer.

dopamine D-2 receptor [2] = target: T1, dopamine D-2 receptor; test: Blocking of [3H]spiperone binding to rat striatal membranes; details: radioligand [3H]spiperone at 0.5 nM; rat striatal membrane preparation; 30 min at 37 °C
Description: as §1

T1 sequence (P61169 whole entry): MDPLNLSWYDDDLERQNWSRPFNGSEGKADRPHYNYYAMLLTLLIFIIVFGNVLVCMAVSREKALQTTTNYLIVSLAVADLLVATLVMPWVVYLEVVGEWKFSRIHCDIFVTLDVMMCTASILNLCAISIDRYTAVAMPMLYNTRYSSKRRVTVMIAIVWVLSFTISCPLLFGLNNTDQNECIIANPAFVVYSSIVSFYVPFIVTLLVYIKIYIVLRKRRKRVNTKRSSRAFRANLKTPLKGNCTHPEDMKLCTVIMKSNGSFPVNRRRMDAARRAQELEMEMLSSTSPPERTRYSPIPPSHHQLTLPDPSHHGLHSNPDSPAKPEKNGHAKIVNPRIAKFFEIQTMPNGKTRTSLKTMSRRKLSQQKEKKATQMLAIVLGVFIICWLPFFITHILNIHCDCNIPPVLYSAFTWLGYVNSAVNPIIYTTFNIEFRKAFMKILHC

IC50 (dopamine D-2 receptor [1]) [nM]	IC50 (dopamine D-2 receptor [2]) [nM]	SMILES
145 ± 5	560 ± 200	CCN1CCC[C@@H]1CNC(=O)c1cc(I)ccc1OC
3.3 ± 0.9	16.4 ± 4.9	CCN1CCC[C@H]1CNC(=O)c1cc(I)ccc1OC
